Source: paper PMC8843100, “Development of newly synthesised quinazolinone-based CDK2 inhibitors with potent efficacy against melanoma” (Journal of Enzyme Inhibition and Medicinal Chemistry, 2022)

Assays:
COLO 205 = experiment: NCI-60 single dose screen, sulforhodamine B; type: cell-based, human; conditions: Colon cancer COLO 205; single dose 10^−5 M
Experimental: (§1) In this research, all of the newly synthesised quinazolinones were subjected to in vitro anticancer screening by the National Cancer Institute (USA) against 60 different human cell lines including leukaemia, non-small cell lung cancer, colon cancer, CNS cancer, melanoma, ovarian cancer, renal cancer, prostate cancer, and breast cancer. The tested compounds were evaluated at a single dose (10^−5 M). […] Regarding the benzenesulfonamide counterparts, the introduction of an electron-withdrawing group on the benzenesulfonamide moiety increased the inhibitory activity on the glioblastoma cell line SNB-75 as depicted by the chloro derivative 5c (GI% = 63.09) which was higher than that of the unsubstituted derivative 5a (GI% = 40.06) and the methyl derivative 5b (GI% = 33.03).
(§2) 1. Cytotoxicity screening against a panel of 60 human tumor cell lines
(§3) All the compounds were selected for NCI-60 Human Tumor Cell Lines Screen by the Developmental Therapeutics Program (DTP) at the National Cancer Institute (NCI), Maryland, USA. The operation of this screen utilizes 60 different human tumor cell lines, representing leukemia, non-small-cell lung cancer, colon cancer, CNS cancer, melanoma, ovarian cancer, renal cancer, prostate cancer and breas t cancer.
(§4) The compounds were supplied as dry powder and a single concentration is tested in all 60 cell lines at a single dose of 10 µM solution in dimethyl sulfoxide (DMSO) using Sulforhodamine B assay. Briefly, cells are seeded in 96 well plates at an appropriate density and incubated for 1 day. After 1 day, some of the plates are processed to determine the density time zero. To the remaining plates, compounds are added at 10 µM concentration. Plates are incubated a further 2 days, then fixed and staine d with sulphorhodamine B. Growth inhibition is calculated relative to cells without drug treatment and the time zero control. The use of a time zero control allows the determination of cell kill as well as net growth inhibition. […]

OVCAR-3 = experiment: NCI-60 single dose screen, sulforhodamine B; type: cell-based, human; conditions: Ovarian cancer OVCAR-3; single dose 10^−5 M
Experimental: as §1, §2, §3, §4

SF-268 = experiment: NCI-60 single dose screen, sulforhodamine B; type: cell-based, human; conditions: CNS cancer SF-268; single dose 10^−5 M
Experimental: as §1, §2, §3, §4

SNB-19 = experiment: NCI-60 single dose screen, sulforhodamine B; type: cell-based, human; conditions: CNS cancer SNB-19; single dose 10^−5 M
Experimental: as §1, §2, §3, §4

SNB-75 = experiment: NCI-60 single dose screen, sulforhodamine B; type: cell-based, human; conditions: CNS cancer SNB-75; single dose 10^−5 M
Experimental: as §1, §2, §3, §4

MDA-MB-435 = experiment: NCI-60 single dose screen, sulforhodamine B; type: cell-based, human; conditions: Melanoma MDA-MB-435; single dose 10^−5 M
Experimental: as §1, §2, §3, §4

OVCAR-4 = experiment: NCI-60 single dose screen, sulforhodamine B; type: cell-based, human; conditions: Ovarian cancer OVCAR-4; single dose 10^−5 M
Experimental: as §1, §2, §3, §4

NCI-H522 = experiment: NCI-60 single dose screen, sulforhodamine B; type: cell-based, human; conditions: Non-small cell lung cancer NCI-H522; single dose 10^−5 M
Experimental: as §1, §2, §3, §4

A549/ATCC = experiment: NCI-60 single dose screen, sulforhodamine B; type: cell-based, human; conditions: Non-small cell lung cancer A549/ATCC; single dose 10^−5 M
Experimental: as §1, §2, §3, §4

RPMI-8226 = experiment: NCI-60 single dose screen, sulforhodamine B; type: cell-based, human; conditions: Leukaemia RPMI-8226; single dose 10^−5 M
Experimental: as §1, §2, §3, §4

MOLT-4 = experiment: NCI-60 single dose screen, sulforhodamine B; type: cell-based, human; conditions: Leukaemia MOLT-4; single dose 10^−5 M
Experimental: as §1, §2, §3, §4

K-562 = experiment: NCI-60 single dose screen, sulforhodamine B; type: cell-based, human; conditions: Leukaemia K-562; single dose 10^−5 M
Experimental: as §1, §2, §3, §4

SF-295 = experiment: NCI-60 single dose screen, sulforhodamine B; type: cell-based, human; conditions: CNS cancer SF-295; single dose 10^−5 M
Experimental: as §1, §2, §3, §4

UO-31 = experiment: NCI-60 single dose screen, sulforhodamine B; type: cell-based, human; conditions: Renal cancer UO-31; single dose 10^−5 M
Experimental: as §1, §2, §3, §4

BT-549 = experiment: NCI-60 single dose screen, sulforhodamine B; type: cell-based, human; conditions: Breast cancer BT-549; single dose 10^−5 M
Experimental: as §1, §2, §3, §4

TK-10 = experiment: NCI-60 single dose screen, sulforhodamine B; type: cell-based, human; conditions: Renal cancer TK-10; single dose 10^−5 M
Experimental: as §1, §2, §3, §4

HOP-92 = experiment: NCI-60 single dose screen, sulforhodamine B; type: cell-based, human; conditions: Non-small cell lung cancer HOP-92; single dose 10^−5 M
Experimental: as §1, §2, §3, §4

SW-620 = experiment: NCI-60 single dose screen, sulforhodamine B; type: cell-based, human; conditions: Colon cancer SW-620; single dose 10^−5 M
Experimental: as §1, §2, §3, §4

ACHN = experiment: NCI-60 single dose screen, sulforhodamine B; type: cell-based, human; conditions: Renal cancer ACHN; single dose 10^−5 M
Experimental: as §1, §2, §3, §4

EKVX = experiment: NCI-60 single dose screen, sulforhodamine B; type: cell-based, human; conditions: Non-small cell lung cancer EKVX; single dose 10^−5 M
Experimental: as §1, §2, §3, §4

U251 = experiment: NCI-60 single dose screen, sulforhodamine B; type: cell-based, human; conditions: CNS cancer U251; single dose 10^−5 M
Experimental: as §1, §2, §3, §4

NCI-H322M = experiment: NCI-60 single dose screen, sulforhodamine B; type: cell-based, human; conditions: Non-small cell lung cancer NCI-H322M; single dose 10^−5 M
Experimental: as §1, §2, §3, §4

HCT-15 = experiment: NCI-60 single dose screen, sulforhodamine B; type: cell-based, human; conditions: Colon cancer HCT-15; single dose 10^−5 M
Experimental: as §1, §2, §3, §4

A498 = experiment: NCI-60 single dose screen, sulforhodamine B; type: cell-based, human; conditions: Renal cancer A498; single dose 10^−5 M
Experimental: as §1, §2, §3, §4

M14 = experiment: NCI-60 single dose screen, sulforhodamine B; type: cell-based, human; conditions: Melanoma M14; single dose 10^−5 M
Experimental: as §1, §2, §3, §4

OVCAR-5 = experiment: NCI-60 single dose screen, sulforhodamine B; type: cell-based, human; conditions: Ovarian cancer OVCAR-5; single dose 10^−5 M
Experimental: as §1, §2, §3, §4

SF-539 = experiment: NCI-60 single dose screen, sulforhodamine B; type: cell-based, human; conditions: CNS cancer SF-539; single dose 10^−5 M
Experimental: as §1, §2, §3, §4

NCI-H226 = experiment: NCI-60 single dose screen, sulforhodamine B; type: cell-based, human; conditions: Non-small cell lung cancer NCI-H226; single dose 10^−5 M
Experimental: as §1, §2, §3, §4

PC-3 = experiment: NCI-60 single dose screen, sulforhodamine B; type: cell-based, human; conditions: Prostate cancer PC-3; single dose 10^−5 M
Experimental: as §1, §2, §3, §4

UACC-62 = experiment: NCI-60 single dose screen, sulforhodamine B; type: cell-based, human; conditions: Melanoma UACC-62; single dose 10^−5 M
Experimental: as §1, §2, §3, §4

SR = experiment: NCI-60 single dose screen, sulforhodamine B; type: cell-based, human; conditions: Leukaemia SR; single dose 10^−5 M
Experimental: as §1, §2, §3, §4

## O=c1c2ccccc2nc(COc2ccccc2)n1NS(=O)(=O)c1ccccc1 [Compound 5a, N-(4-oxo-2-(phenoxymethyl)quinazolin-3(4H)-yl)benzenesulfonamide]
COLO 205
  GI% at 10^−5 M: – (– means GI < 10%)
OVCAR-3
  GI% at 10^−5 M: – (– means GI < 10%)
SF-268
  GI% at 10^−5 M: – (– means GI < 10%)
SNB-19
  GI% at 10^−5 M: – (– means GI < 10%)
SNB-75
  GI% at 10^−5 M: 40.06%
MDA-MB-435
  GI% at 10^−5 M: – (– means GI < 10%)
OVCAR-4
  GI% at 10^−5 M: – (– means GI < 10%)
NCI-H522
  GI% at 10^−5 M: – (– means GI < 10%)
A549/ATCC
  GI% at 10^−5 M: – (– means GI < 10%)
RPMI-8226
  GI% at 10^−5 M: – (– means GI < 10%)
MOLT-4
  GI% at 10^−5 M: – (– means GI < 10%)
K-562
  GI% at 10^−5 M: – (– means GI < 10%)
SF-295
  GI% at 10^−5 M: – (– means GI < 10%)
UO-31
  GI% at 10^−5 M: 18.13%
BT-549
  GI% at 10^−5 M: – (– means GI < 10%)
TK-10
  GI% at 10^−5 M: – (– means GI < 10%)
HOP-92
  GI% at 10^−5 M: 10.25%
SW-620
  GI% at 10^−5 M: – (– means GI < 10%)
ACHN
  GI% at 10^−5 M: 11.23%
EKVX
  GI% at 10^−5 M: 15.21%
U251
  GI% at 10^−5 M: – (– means GI < 10%)
NCI-H322M
  GI% at 10^−5 M: – (– means GI < 10%)
HCT-15
  GI% at 10^−5 M: – (– means GI < 10%)
A498
  GI% at 10^−5 M: – (– means GI < 10%)
M14
  GI% at 10^−5 M: – (– means GI < 10%)
OVCAR-5
  GI% at 10^−5 M: – (– means GI < 10%)
SF-539
  GI% at 10^−5 M: – (– means GI < 10%)
NCI-H226
  GI% at 10^−5 M: – (– means GI < 10%)
PC-3
  GI% at 10^−5 M: – (– means GI < 10%)
UACC-62
  GI% at 10^−5 M: – (– means GI < 10%)
SR
  GI% at 10^−5 M: – (– means GI < 10%)
other
  melting point: 114 to 116 °C
